Laboratory results published in patent US9988379B2, “GPR40 receptor agonist, methods of preparing the same, and pharmaceutical compositions containing the same as an active agent” (LG CHEM, LTD., priority 2012, dated 2018).
Each block holds one compound with its values, some of them ahead of it.

Biological target: T1, human GPR40 (Homo sapiens, UniProt O14842)
T1 construct: expressed in transfected cells; host or cells: CHO-K1
Test: Induction of Ca2+ (calcium flux assay) using human GPR40 expression cell line
Assay type: cell-based
Conditions: read-out: EC0.5
Summary of the method: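 Read-out is intracellular Ca2+ flux on FlexStation after test compounds (DMSO stocks diluted 200-fold in assay buffer) were added to dye-loaded human GPR40/CHO-K1 cells. Cells had been cultured 24 h, then incubated 1 h at 37° C with Calcium 5 dye, HBSS-HEPES pH 7.4; EC0.5 from concentration plot.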

T1 sequence (O14842 whole entry): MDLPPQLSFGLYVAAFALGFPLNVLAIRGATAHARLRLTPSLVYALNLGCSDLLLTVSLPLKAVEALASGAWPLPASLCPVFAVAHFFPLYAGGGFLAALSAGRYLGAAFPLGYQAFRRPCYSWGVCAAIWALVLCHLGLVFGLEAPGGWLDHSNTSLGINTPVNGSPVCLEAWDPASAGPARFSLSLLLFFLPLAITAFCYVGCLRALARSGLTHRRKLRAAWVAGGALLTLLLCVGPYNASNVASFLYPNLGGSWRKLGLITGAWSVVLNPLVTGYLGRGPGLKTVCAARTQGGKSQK

SMILES: CC#C[C@@H](CC(=O)O)c1ccc(OCc2ccc3c(cnn3Cc3ccccn3)c2)cc1 [Example 141, (S)-3-[4-(1-pyridine-2-ylmethyl-1H-indazol-5-ylmethoxy)-phenyl]-hex-4-ynoic acid]
EC50: 1 to 50 nM

SMILES: O=C(O)CC1COc2cc(OCc3ccc4c(Cl)cn(Cc5ccccc5)c4c3)ccc21 (stereo not drawn) [Example 12, [6-(1-benzyl-3-chloro-1H-indol-6-ylmethoxy)-2,3-dihydro-benzofuran-3-yl]-acetic acid]
EC50: 160 nM

SMILES: CC#C[C@@H](CC(=O)O)c1ccc(OCc2ccc3ccn(Cc4cnccn4)c3c2C)cc1 [Example 60, (S)-3-[4-(7-methyl-1-pyrazin-2-ylmethyl-1H-indol-6-ylmethoxy)-phenyl]-hex-4-ynoic acid]
EC50: 1 to 50 nM

SMILES: CC#C[C@@H](CC(=O)O)c1ccc(OCc2ccc(C)c3c2c(F)nn3CC(C)C)cc1 [Example 213, (S)-3-[4-(3-fluoro-1-isobutyl-7-methyl-1H-indazol-4-ylmethoxy)-phenyl]-hex-4-ynoic acid]
EC50: 1 to 50 nM

SMILES: CC(CC(=O)O)c1ccc(OCc2ccc3cnn(Cc4ccccc4)c3c2)cc1 (stereo not drawn) [Example 117, 3-[4-(1-benzyl-1H-indazol-6-ylmethoxy)-phenyl]-butyric acid]
EC50: 50 nM

SMILES: CC#C[C@@H](CC(=O)O)c1ccc(OCc2cnc3c(ccn3CC(C)C)c2)cc1 [Example 144, (S)-3-[4-(1-isobutyl-1H-pyrrolo[2,3-b]pyridin-5-ylmethoxy)-phenyl]-hex-4-ynoic acid]
EC50: 1 to 50 nM

SMILES: Cc1c(COc2ccc(CCC(=O)O)c(F)c2)ccc2ccn(Cc3ccccc3)c12 [Example 55, 3-[4-(1-benzyl-7-methyl-1H-indol-6-ylmethoxy)-2-fluoro-phenyl]-propanoic acid]
EC50: 1 to 50 nM

SMILES: O=C(O)C[C@@H](c1ccc(OCc2ccc3ccn(Cc4ccc(F)cc4)c3n2)cc1)c1ccon1 [Example 95, (S)-3-{4-[1-(4-fluoro-benzyl)-1H-pyrrolo[2,3-b]pyridin-6-ylmethoxy]-phenyl}-3-isoxazol-3-yl-propanoic acid]
EC50: 100 nM

SMILES: CC#C[C@@H](CC(=O)O)c1ccc(OCc2ccc3cnn(C4CCCC4)c3c2)cc1 [Example 172, (S)-3-[4-(1-cyclopentyl-1H-indazol-6-ylmethoxy)-phenyl]-hex-4-ynoic acid]
EC50: 1 to 50 nM

SMILES: CC#C[C@@H](CC(=O)O)c1ccc(OCc2ccc3cn(Cc4cccnc4)nc3c2)cc1 [Example 80, (S)-3-[4-(2-pyridin-3-ylmethyl-2H-indazol-6-ylmethoxy)-phenyl]-hex-4-ynoic acid]
EC50: ≥ 500 nM

SMILES: CC#C[C@@H](CC(=O)O)c1ccc(OCc2ccc3c(C)n(CC(C)C)nc3c2)cc1 [Example 179, (S)-3-[4-(2-isobutyl-3-methyl-2H-indazol-6-ylmethoxy)-phenyl]-hex-4-ynoic acid]
EC50: 1 to 50 nM

SMILES: O=C(O)C[C@@H](c1ccc(OCc2ccc3cnn(CC4CC4)c3c2)cc1)c1ccon1 [Example 97, (S)-3-[4-(1-cyclopropylmethyl-1H-indazol-6-ylmethoxy)-phenyl]-3-isoxazol-3-yl-propanoic acid]
EC50: 50 nM

SMILES: O=C(O)CCc1ccc(OCc2ccc3ccn(Cc4ccccc4)c3c2Cl)cc1 [Example 18, 3-[4-(1-benzyl-7-chloro-1H-indol-6-ylmethoxy)-phenyl]-propanoic acid]
EC50: 90 nM

SMILES: CC#C[C@@H](CC(=O)O)c1ccc(OCc2ccc3c(c2)c(C)nn3C(C)C)cc1 [Example 187, (S)-3-[4-(1-isopropyl-3-methyl-1H-indazol-5-ylmethoxy)-phenyl]-hex-4-ynoic acid]
EC50: 1 to 50 nM

SMILES: Cc1c(COc2ccc([C@H](CC(=O)O)c3ccon3)cc2)ccc2ccn(Cc3ccc(F)cc3)c12 [Example 84, (S)-3-{4-[1-(4-fluoro-benzyl)-7-methyl-1H-indol-6-ylmethoxy]-phenyl}-3-isoxazol-3-yl-propanoic acid]
EC50: 50 nM

SMILES: CC#C[C@@H](CC(=O)O)c1ccc(OCc2ccc3c(cnn3C(C)C)c2)cc1 [Example 116, (S)-3-[4-(1-isopropyl-1H-indazol-5-ylmethoxy)-phenyl]-hex-4-ynoic acid]
EC50: 1 to 50 nM

SMILES: CC#C[C@@H](CC(=O)O)c1ccc(OCc2cccc3c(F)nn(C)c23)cc1 [Example 203, (S)-3-[4-(3-fluoro-1-methyl-1H-indazol-7-ylmethoxy)-phenyl]-hex-4-ynoic acid]
EC50: 1 to 50 nM

SMILES: CC#C[C@@H](CC(=O)O)c1ccc(OCc2cccc3nn(Cc4cnc(C)cn4)cc23)cc1 [Example 78, (S)-3-{4-[2-(5-methyl-pyrazin-2-ylmethyl)-2H-indazol-4-ylmethoxy]-phenyl}-hex-4-ynoic acid]
EC50: 50 to 500 nM

SMILES: CC(C)Cn1ccc2ccc(COc3ccc([C@H](CC(=O)O)c4ccon4)cc3)nc21 [Example 98, (S)-3-[4-(1-isobutyl-1H-pyrrolo[2,3-b]pyridin-6-ylmethoxy)-phenyl]-3-isoxazol-3-yl-propanoic acid]
EC50: 1 to 50 nM

SMILES: CC#C[C@@H](CC(=O)O)c1ccc(OCc2cc(C)c3c(cnn3Cc3ccccc3)c2)cc1 [Example 126, (S)-3-[4-(1-benzyl-7-methyl-1H-indazol-5-ylmethoxy)-phenyl]-hex-4-ynoic acid]
EC50: 1 to 50 nM

SMILES: CC#C[C@@H](CC(=O)O)c1ccc(OCc2ccc3ccn(Cc4cccc(C(F)(F)F)c4)c3c2C)cc1 [Example 43, (S)-3-{4-[7-methyl-1-(3-trifluoromethyl-benzyl)-1H-indol-6-ylmethoxy]-phenyl}-hex-4-ynoic acid]
EC50: 50 to 500 nM

SMILES: Cc1c(COc2ccc3c(c2)OCCC3CC(=O)O)ccc2ccn(Cc3ccccc3)c12 (stereo not drawn) [Example 145, [7-(1-benzyl-7-methyl-1H-indol-6-ylmethoxy)-chroman-4-yl]-acetic acid]
EC50: 40 nM

SMILES: CC#C[C@@H](CC(=O)O)c1ccc(OCc2ccc3c(cnn3CCCS(C)(=O)=O)c2)cc1 [Example 152, (S)-3-{4-[1-(3-methanesulfonyl-propyl)-1H-indazol-5-ylmethoxy]-phenyl}-hex-4-ynoic acid]
EC50: ≥ 500 nM

SMILES: CC#C[C@@H](CC(=O)O)c1ccc(OCc2cccc3c2c(F)nn3C(C)C)cc1 [Example 194, (S)-3-[4-(3-fluoro-1-isopropyl-1H-indazol-4-ylmethoxy)-phenyl]-hex-4-ynoic acid]
EC50: 1 to 50 nM

SMILES: O=C(O)CC1COc2cc(OCc3ccc4cn(Cc5ccccc5)nc4c3)ccc21 (stereo not drawn) [Example 113, [6-(2-benzyl-2H-indazol-6-ylmethoxy)-2,3-dihydro-benzofuran-3-yl]-acetic acid]
EC50: 9100 nM

Next, values leading:

EC50: 20 nM
SMILES: CC#C[C@@H](CC(=O)O)c1ccc(OCc2ccc3ccn(-c4ccc(F)cc4C)c3c2)cc1 [Example 26, (S)-3-{4-[1-(4-fluoro-2-methyl-phenyl)-1H-indol-6-ylmethoxy]-phenyl}-hex-4-ynoic acid]

EC50: 5 nM
SMILES: CC#C[C@@H](CC(=O)O)c1ccc(OCc2ccc(C)c3c2cnn3CC(C)C)cc1 [Example 208, (S)-3-[4-(1-isobutyl-7-methyl-1H-indazol-4-ylmethoxy)-phenyl]-hex-4-ynoic acid]

EC50: 9 nM
SMILES: CC#C[C@@H](CC(=O)O)c1ccc(OCc2ccnc3c2ccn3CC(C)C)cc1 [Example 204, (S)-3-[4-(1-isobutyl-1H-pyrrolo[2,3-b]pyridin-4-ylmethoxy)-phenyl]-hex-4-ynoic acid]

EC50: 10 nM
SMILES: CC#C[C@@H](CC(=O)O)c1ccc(OCc2ccc3c(CN4CCOCC4)nn(CC(C)C)c3c2C)cc1 [Example 215, (S)-3-[4-(1-isobutyl-7-methyl-3-morpholin-4-ylmethyl-1H-indazol-6-ylmethoxy)-phenyl]-hex-4-ynoic acid]

EC50: 3 nM
SMILES: CC#C[C@@H](CC(=O)O)c1ccc(OCc2cc3c(cnn3CC(C)C)cc2F)cc1 [Example 150, (S)-3-[4-(5-fluoro-1-isobutyl-1H-indazol-6-ylmethoxy)-phenyl]-hex-4-ynoic acid]

EC50: 5 nM
SMILES: CC#C[C@@H](CC(=O)O)c1ccc(OCc2ccc3c(CF)nn(CC(C)C)c3c2C)cc1 [Example 222, (S)-3-[4-(3-fluoromethyl-1-isobutyl-7-methyl-1H-indazol-6-ylmethoxy)-phenyl]-hex-4-ynoic acid]

EC50: 20 nM
SMILES: Cc1cc(F)ccc1-n1ccc2ccc(COc3ccc4c(c3)OCC4CC(=O)O)cc21 (stereo not drawn) [Example 24, {6-[1-(4-fluoro-2-methyl-phenyl)-1H-indol-6-ylmethoxy]-2,3-dihydro-benzofuran-3-yl}-acetic acid]

EC50: 30 nM
SMILES: O=C(O)CCc1ccc(NCc2ccc3c(Cl)cn(Cc4ccccc4)c3c2)cc1 [Example 5, 3-{4-[(1-benzyl-3-chloro-1H-indol-6-ylmethyl)-amino]-phenyl}-propanoic acid]

EC50: 10 nM
SMILES: CC#C[C@@H](CC(=O)O)c1ccc(OCc2ccc3ccn(Cc4ccccc4)c3n2)cc1 [Example 90, (S)-3-[4-(1-benzyl-1H-pyrrolo[2,3-b]pyridin-6-ylmethoxy)-phenyl]-hex-4-ynoic acid]

EC50: 10 nM
SMILES: CC#C[C@@H](CC(=O)O)c1ccc(OCc2ccc3c(cnn3CC3CCCCC3)c2)cc1 [Example 138, (S)-3-[4-(1-cyclohexylmethyl-1H-indazol-5-ylmethoxy)-phenyl]-hex-4-ynoic acid]

EC50: 23 nM
SMILES: CC#C[C@@H](CC(=O)O)c1ccc(OCc2ccc3c(CN4CCOCC4)nn(CC(C)C)c3c2)cc1 [Example 219, (S)-3-[4-(1-isobutyl-3-morpholin-4-ylmethyl-1H-indazol-6-ylmethoxy)-phenyl]-hex-4-ynoic acid]

EC50: 16 nM
SMILES: CC#C[C@@H](CC(=O)O)c1ccc(OCc2cccc3c2c(C)nn3CCCC)cc1 [Example 205, (S)-3-[4-(1-butyl-3-methyl-1H-indazol-4-ylmethoxy)-phenyl]-hex-4-ynoic acid]

EC50: 30 nM
SMILES: CC#C[C@@H](CC(=O)O)c1ccc(OCc2cccc3nn(Cc4ccc(F)cc4)cc23)cc1 [Example 72, (S)-3-{4-[2-(4-fluoro-benzyl)-2H-indazol-4-ylmethoxy]-phenyl}-hex-4-ynoic acid]

EC50: 10 nM
SMILES: Cc1c(COc2ccc(CCC(=O)O)cc2)ccc2ccn(Cc3ccccc3)c12 [Example 15, 3-[4-(1-benzyl-7-methyl-1H-indol-6-ylmethoxy)-phenyl]-propanoic acid]
